According to paper PMC6130489, “Caffeic acid methyl and ethyl esters exert potential antidiabetic effects on glucose and lipid metabolism in cultured murine insulin-sensitive cells through mechanisms implicating activation of AMPK” (Pharmaceutical Biology, 2017):

How the values were obtained:
Akt = assay: Western immunoblot phospho-Akt in L6 myotubes; format: cell-based, rat; conditions: 50 μM, 18 h
Procedure: (§1) L6 cells myotubes, H4IIE cells and 3T3-L1 adipocytes were treated with either CAME, CAEE (50 μM each) or vehicle (DMSO) for 18 h. Insulin (100 nM) or aminoimidazole carboxamide ribonucleotide (AICAR; 1 mM) were added to some vehicle-treated wells 30 min prior to the end of the treatment and served as the positives controls. Protein content was assayed by the bicinchoninic acid method (Thermo Scientific Pierce Protein Research, Rockford, IL) standardized to bovine serum albumin. Western immunoblotting was performed as described elsewhere (Eid et al. [2010]). […] Immunoreactive bands were visualized by enhanced chemiluminescence and quantified by the Scion Image program (Scion Corporation, Frederick, MD). […]
(§2) Figure 1. […] Cells were treated as previously described, cell surface GLUT4myc was detected by an enzyme-linked colorimetric assay. […] Results represent the means ± SEM of three independent experiments, and 3-4 cells were analyzed for each condition per experiment. *Indicates a significant (p ≤ 0.05) difference, **(p < 0.01) from the vehicle control group as assessed by ANOVA. […] Data are expressed as (D) phospho-AMPK/β-actin, (E) GLUT4/β-actin and (F) GLUT1/β-actin and are given as mean ± SEM from 3 experiments. *p < 0.05 indicates a significant difference, **(p < 0.01) from the vehicle control group.

GLUT4 = assay: Western immunoblot GLUT4 protein content in L6 myotubes; format: cell-based, rat; conditions: 50 μM, 18 h, GLUT4/β-actin
Procedure: as §1, §2

G6Pase = target: T1, G6Pase (Rattus norvegicus, UniProt P43428); assay: Enzymatic activity of G6Pase in H4IIE cells; format: cell-based; conditions: at 100 μM, relative to DMSO
T1 sequence (P43428 1-357): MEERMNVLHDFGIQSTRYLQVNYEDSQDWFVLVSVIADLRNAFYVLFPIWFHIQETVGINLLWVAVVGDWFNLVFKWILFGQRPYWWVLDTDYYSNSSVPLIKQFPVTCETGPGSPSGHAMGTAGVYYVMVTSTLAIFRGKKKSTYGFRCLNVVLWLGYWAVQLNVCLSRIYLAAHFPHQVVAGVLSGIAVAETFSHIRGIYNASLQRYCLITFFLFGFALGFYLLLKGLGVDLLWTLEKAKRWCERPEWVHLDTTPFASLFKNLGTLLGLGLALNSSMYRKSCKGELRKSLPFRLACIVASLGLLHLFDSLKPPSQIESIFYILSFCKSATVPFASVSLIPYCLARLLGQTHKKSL
Procedure: At 90% confluence, H4-IIE cells were treated with 12.5, 25, 50 and 100 μM of either CAME or CAEE in serum free medium. Vehicle (0.1% DMSO)-treated and 100 nM insulin-treated cells served as the negative and positive control respectively. The activity of G6Pase was assessed by measuring the rate of glucose production in the presence of a non-limiting amount of glucose-6-phosphate (G6P) as described elsewhere (Nachar et al. [2013]). Total glucose production was measured using a commercial glucose assay kit (AutoKit Glucose; Wako Diagnostics, Richmond, VA). Protein content was measured using bicinchoninic acid (BCA) assay (Simpson [2008]) and G6Pase activity was expressed in relation to protein content.
Figure 2. CAME and CAEE inhibit G6Pase by mechanisms involving activation of AMPK. (A) H4IIE hepatocytes were treated for 16 h with several concentrations (12.5, 25, 50 and100 μM) of either CAME or CAEE and G6Pase activity was determined colorimetrically using a commercial glucose assay kit as described under Materials and Methods. Data are expressed relative to vehicle control (0.1% DMSO, 0% inhibition). Insulin (100 nM) applied for similar treatment period served as the positive control. (B and C) Cells were treated with the optimal nontoxic concentration of either CAME, CAEE (50 μM each), or DMSO (0.1%) for 18 h, insulin (100 nM), AICAR (1 mM) applied for 30 min served as the positive controls. (B) The upper blot was probed with anti-phospho-AMPK antibody (Thr 172) and the lower blot was probed with anti-pan AMPK. (C) Blots were probed with antibodies against phospho-Akt (Ser 473) or pan-Akt. Immunoblots are representative of three independent experiments with similar results. (D) Data are expressed as phospho-AMPK/pan-AMPK and are given as mean ± SEM from 3 experiments. *p < 0.05 indicates a significant difference, **(p < 0.01), ***(p < 0.001) from the vehicle control group.

Row | Structure (SMILES) | effect on Akt (phospho-Akt) (Akt) | GLUT4 content, fold compared to DMSO (GLUT4) | inhibition at 100 µM (G6Pase)
1 | COC(=O)/C=C/c1ccc(O)c(O)c1 [CAME, CA methyl ester] | no effect | ~2.7 fold | 62 ± 6.9%
2 | CCOC(=O)/C=C/c1ccc(O)c(O)c1 [CAEE, caffeic acid ethyl ester] | no effect | ~3.2 fold | 62.7 ± 6%
